From article PMC9671962 (Communications Biology, 2022)
“And” between values parts separate entries of the source, which are not always exact repeats. Equal entries are not always repeated.

Legend:
[1] = test system: COG-N-426x-FELIX; assay: Pre-clinical efficacy study, COG-N-426x-FELIX PDX; format: in vivo, mouse; conditions: for Tumor Volume: COG-N-426x-FELIX tumor re-challenge (24 MBq/kg/fraction x 4); for EFS by AOC method / Tumor response (% growth from study initiation at ~ 200 mm3): single mouse
Method: (§1) Patient demographics and genetic characteristics are listed in (Supplementary Tables 1, 2)[17]. The maximum tolerated dose (MTD) was determined to be 36 MBq/kg administered by intra-peritoneal injection twice weekly for a total of 4 dose fractions and this fractionated regimen was used in all studies (Supplementary Fig. 1)[18],[19]. […] Nine of 11 PDX models were MYCN amplified (Fig. 1b), which is a hallmark of high-risk neuroblastoma. Tumor response was measured as the maximum percent decrease in tumor volume after treatment and event-free survival (EFS) was measured by the area over the curve method with tumor events pre-defined by tumor growth exceeding 2 cm[3],[18].
The use of 2 mice per arm was based on the previously reported statistical analysis. PDX tumors were implanted into the right flank of 5 to 6-weeks old female mice weighing about 20–25 grams. […] Two additional dose levels of 12, and 24 MBq/kg/fraction were assessed in a subset of models and were administered as stated above. In two models treated at the 24 MBq/kg/fraction dose level we re-challenged tumor response at the time of tumor progression with an additional 4 dose fractions at 24 MBq/kg/fraction given twice weekly. Doses were prepared in 500 µL total volume. An equal volume of saline was used for the vehicle group. Tumors were measured using a digital caliper at the initiation of the study and two times per week during the treatment period. Tumor volumes were calculated as volume = ([…]∗0.5236)/1000. Weights were obtained twice weekly and mice were monitored daily for signs of toxicity. […] Tumor response was assessed by best response defined as greatest reduction in tumor volume following the last dose and is presented as percent change in tumor volume. Event-free survival was determined by area over the curve method that calculates the time to tumor event, which was defined as tumors reaching or exceeding a size ≥ 2 cm^3.
Animal studies were performed in female mice due to the lack of sex-related differences for [^211At]PTT tolerability from initial dose response studies performed in female and male mice. Female mice were chosen due to their underlying behavior towards other study subjects that reduced nonstudy-related causes for decreased wellness. Pre-clinical efficacy studies were performed through “single mouse testing” to more closely recapitulate a clinical trial. […] Number size for treatment groups was determined by model tumor growth reproducibility, which was previously shown to have less than 5% normal variation with at least two animals. Statistical tests for tumor response and event-free survival (EFS) were performed as a grouped analysis that included all tumor models treated at each respective dose level (n = 2 per model per dose level). Statistical differences between treatment groups for tumor response was performed by paired-model T-test that compared reduction in tumor volume for the 36 MBq/kg dose level vs. 24 MBq/kg or 12 MBq/kg. Event free survival was measured by area over the curve method to quantify time to event, which was set as tumor growth exceeding 2 cm[3],[19]. Differences in EFS were tested across all treated models for each respective dose level, and against untreated controls, by paired-model ANOVA analysis. Associations of drug target expression and response were performed by linear regression analysis of EFS and PARP1 mRNA expression. Genetic signatures were visually presented as a function of EFS and no statistical tests were applied. Blood and marrow toxicity studies were performed with n = 5 sample sizes and powered to detect >20% differences between untreated controls and treated animals. Results were tested for significance by one-way ANOVA comparison from untreated controls. Marrow colony formation assays were performed in replicates of 2 for each mouse subject, dependent on marrow isolation, and all replicates are included in final analyses. […]

[2] = test system: NB-1643x; assay: Pre-clinical efficacy study, NB-1643x PDX; format: in vivo; conditions: 36 MBq/kg/fraction x 4 fractions, single mouse
Method: as §1
The use of 2 mice per arm was based on the previously reported statistical analysis. […] Two additional dose levels of 12, and 24 MBq/kg/fraction were assessed in a subset of models and were administered as stated above. […] Tumors were measured using a digital caliper at the initiation of the study and two times per week during the treatment period. Tumor volumes were calculated as volume = ((diameter^1/2 + diameter^2/2)^3∗0.5236)/1000. Weights were obtained twice weekly and mice were monitored daily for signs of toxicity. […] Tumor response was assessed by best response defined as greatest reduction in tumor volume following the last dose and is presented as percent change in tumor volume. […]

[3] = COG-N-426x-FELIX, 24 MBq/kg/fraction x 4 fractions
[4] = COG-N-426x-FELIX, 36 MBq/kg/fraction x 4 fractions

O=C1NCCn2c(-c3ccc([211At])cc3)nc3cccc1c32 [[^211At]PTT, Astatine-211-parthanatine]
Tumor Volume ([1]; week 0): 0.25 cm3
Tumor Volume ([1]; week 0.4): 0.2 cm3
Tumor Volume ([1]; week 0.9): 0.05 cm3
Tumor Volume ([1]; week 1.3): 0.08 cm3
Tumor Volume ([1]; week 1.9): 0.01 cm3
Tumor Volume ([1]; week 2.3): 0.01 cm3
Tumor Volume ([1]; week 2.9): 0 cm3
Tumor Volume ([1]; week 3.4): 0.01 cm3
Tumor Volume ([1]; week 3.9): 0 cm3
Tumor Volume ([1]; week 4.4): 0 cm3
Tumor Volume ([1]; week 4.9): 0 cm3
Tumor Volume ([1]; week 5.3): 0 cm3
Tumor Volume ([1]; week 5.9): 0 cm3
Tumor Volume ([1]; week 6.3): 0.02 cm3
Tumor Volume ([1]; week 6.9): 0.19 cm3
Tumor Volume ([1]; week 7.3): 0.13 cm3
Tumor Volume ([1]; week 7.9): 0.03 cm3
Tumor Volume ([1]; week 8.3): 0.02 cm3
Tumor Volume ([1]; week 8.9): 0 cm3
Tumor Volume ([1]; week 9.3): 0 cm3
Tumor Volume ([1]; week 9.9): 0 cm3
Tumor Volume ([1]; week 10.3): 0 cm3
Tumor Volume ([1]; week 10.9): 0 cm3
Tumor Volume ([1]; week 11.3): 0 cm3
Tumor Volume ([1]; week 11.9): 0 cm3
Tumor Volume ([1]; week 12.3): 0 cm3
Tumor Volume ([1]; week 12.9): 0 cm3
Tumor Volume ([1]; week 13.3): 0 cm3
Tumor Volume ([1]; week 13.9): 0 cm3
Tumor Volume ([1]; week 14.3): 0 cm3
Tumor Volume ([1]; week 14.9): 0 cm3
EFS1 (initial treatment) ([1]; COG-N-426x-FELIX, 24 MBq/kg/fraction x 4, re-challenged mouse n = 1): 49 days and 49.5 days
EFS by AOC method [1, 3]: 103. 9 Days
Tumor response (% growth from study initiation at ~ 200 mm3) [1, 3]: -100%
EFS by AOC method [1, 4]: 104. 1 Days and 104.134 Days and 104.127 Days
Tumor response (% growth from study initiation at ~ 200 mm3) [1, 4]: -100%
EFS2 (re-challenge treatment) ([1]; COG-N-426x-FELIX, re-challenge 24 MBq/kg/fraction x 4 at tumor progression, no measurable disease): 59 days
EFS by AOC method [2]: 90.5 days and 76.6 days and 90.5782 days and 76.6342 days
Tumor response (% growth from study initiation at ~ 200 mm3) [2]: -95.4545% and -100%
